The values that follow are results of earlier work, collected in patent US20210268011A1, “AMPK ACTIVATING AGENT” (ORYZA OIL & FAT CHEMICAL CO., LTD., priority 2018, published 2021).

This data set relates to AMPK. To be noted: recent research, Non-patent Document 4; cited from earlier work.

The structures appear in SMILES notation.

`CN(C)C(=N)N=C(N)N` [metformin]: the AMPK activation entry is reported as “activated”.
